Results published in BindingDB's records for doi:10.1111/j.1476-5381.1983.tb10541.x (University of Edinburgh, 1983).
Several values for one entry are separate records, joined by “and”; a condition that tells them apart may be missing. Equal values may be shown once.

Molecular target: T1, Thromboxane A2 receptor (Mus musculus, UniProt P30987)
T1 sequence (P30987 whole entry): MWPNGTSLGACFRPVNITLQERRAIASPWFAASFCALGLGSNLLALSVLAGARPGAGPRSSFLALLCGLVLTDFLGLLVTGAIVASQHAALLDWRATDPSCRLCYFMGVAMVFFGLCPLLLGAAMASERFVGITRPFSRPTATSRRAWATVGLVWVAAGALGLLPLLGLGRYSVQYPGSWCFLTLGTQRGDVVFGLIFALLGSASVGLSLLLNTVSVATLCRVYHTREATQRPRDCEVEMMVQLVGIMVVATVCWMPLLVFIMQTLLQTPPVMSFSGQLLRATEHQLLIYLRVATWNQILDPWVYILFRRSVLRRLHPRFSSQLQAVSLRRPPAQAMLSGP

Structure (SMILES) | Ki
CCCCC(C)(C)[C@H](O)/C=C/[C@@H]1[C@@H](C/C=C\CCCC(=O)O)[C@@H](O)C[C@H]1O | 770 nM
CCCCC[C@@H](O)/C=C/[C@H]1[C@H](O)CC(=O)[C@@H]1CCCCCCC(=O)O | > 10000 nM
COc1cc(CC2NCCc3cc(O)c(O)cc32)cc(OC)c1OC (centres undefined) [1-(3,4,5-Trimethoxy-benzyl)-1,2,3,4-tetrahydro-isoquinoline-6,7-diol] | > 10000 nM
CCCCC[C@H](O)CC[C@H]1c2cc([nH]n2)[C@@H]1CC=CCCCC(=O)O [9,11-AzoPGH2] | 1100 nM
CCCCCC(O)C=CC1C2CCC(C2)C1CC=CCCCC(=O)O (centres undefined) [9,11-ethano PGH2] | 440 nM
CCCCC[C@H](O)/C=C/[C@H]1C2OC2C(=O)[C@@H]1C/C=C\CCCC(=O)O (stereo partly drawn) [10alpha,11alpha-oxido PGA2] | > 10000 nM
CCCCC[C@H](O)/C=C/[C@@H]1[C@@H](/C=C\CCCC(=O)O)[C@H]2CO[C@@H]1C2 [11,9-epoxymethano PGH2] | 360 nM
CCCCC[C@H](O)/C=C/C1[C@H](O)C[C@H](O)[C@@H]1C/C=C\CCCC(=O)O (stereo partly drawn) [(Z)-7-[(1R,3R,5S)-3,5-Dihydroxy-2-((E)-(S)-3-hydroxy-oct-1-enyl)-cyclopentyl]-hept-5-enoic acid] | > 10000 nM
CCCCCC(O)CC=C1C(=O)C=CC1CC=CCCCC(=O)O (centres undefined) [CAS_41598-07-6] | > 10000 nM
CCCCC[C@H](O)/C=C/[C@H]1O[C@H]2C[C@H](O2)[C@@H]1C/C=C\CCCC(=O)O [CAS_57576-52-0] | 1300 nM
CCCCC[C@@H](O)/C=C/[C@H]1C[C@H]2C[C@@H]([C@@H]1C/C=C\CCCC(=O)O)C2(C)C [CAS_71111-01-8] | 1400 nM
CCCCC[C@H](O)/C=C/C1C[C@H]2C[C@H](C2)[C@@H]1C/C=C\CCCC(=O)O (some centres undefined) [CAS_74034-56-3] | 1500 nM
O=C(O)CCCC=CCC1C(O)CC(O)C1C=CC(O)COc1ccc(F)cc1 (centres undefined) [CAS_188200] | 320 nM
CCCCC[C@H](O)/C=C/[C@H]1[C@H](O)CC(=O)[C@@H]1C/C=C\CCCC(=O)O [DINOPROSTONE] | > 10000 nM
O=C(O)CCC/C=C/C[C@H]1C2C=CC(C2)[C@@H]1/C=C/[C@H](O)COc1ccc(F)cc1 (some centres undefined) [EP011] | 1200 nM
CCCCCC(C)(O)C=CC1C(O)CC(O)C1CC=CCCCC(=O)O (centres undefined) [NSC_37255] | > 10000 nM
O=C(O)CCCC=CCC1C2CCC(C2)C1C=NNC(=O)Nc1ccccc1 (centres undefined) [NSC_5311388] | 460 nM
CCCCC[C@H](O)/C=C/[C@@H]1[C@@H](C/C=C\CCCC(=O)O)[C@@H]2C[C@H]1OO2 [PGH2] | 200 nM and 1600 nM
CCCCC/C=C\C/C=C\C/C=C\C/C=C\CCCC(=O)O [[1-14C]Arachidonic acid] | > 10000 nM
